Reference: PMC10150366, “Discovery of an In Vivo Chemical Probe for BCL6 Inhibition by Optimization of Tricyclic Quinolinones” (Journal of Medicinal Chemistry, 2023)
“And” between values parts separate entries of the source, which are not always exact repeats. Equal values may be shown once. Read-outs that look alike come from different tables or passages of the source.

What was measured:
[1] = target: T1, BCL6-SMRT (NCOR2) corepressor protein-protein interaction (Homo sapiens, UniProt P41182); assay: NanoBRET cellular assay (HEK293T); type: cell-based
T1 construct: DNA encoding full length BCL6 and SMRT; expressed in transfected cells; host or cells: HEK293T
Protocol: Test compounds in DMSO or DMSO alone
concentration in 0.7% v/v DMSO final.
(also called NCOR2) corepressor protein-protein interaction. DNA encoding full length BCL6 and SMRT
fusion proteins BCL6-nanoLuc and SMRT-HaloTag, respectively. HEK293T cells were plated […] in T75
At the time of assay, compounds
dispensing (Labcyte Inc.). Frozen transfected HEK293T cells were thawed, centrifuged and freezing
DMSO final concentration.
After a short centrifugation the
(1st emission filter) / 450-80 nm (2nd emission filter). The % inhibition at each test concentration was
sigmoidal four-parameter logistic fit equation. […]

ARID3A mRNA = ARID3A mRNA in Karpas 422 tumour xenografts (quantitative RT-PCR); type: in vivo, mouse; conditions: 50 mg/kg PO, 12 h post dose, TaqMan PCR
Protocol: frozen in liquid nitrogen, dedicating one half to PK analysis and the other half to pharmacodynamic analysis (PD). All frozen material was permanently stored in a -80°C freezer.
5.3.5 Tumour lysis and Wes method
Tumours were lysed in lysis buffer (50 mM Tris-HCl, pH 7.4, 150 mM NaCl, 1% Triton X-100 (v/v), 1 mM PMSF, 1 mM activated sodium vanandate, 1 mM EDTA, phosphatase inhibitors 2 and 3 (1:50m dilution) and protease cocktail (1:100 dilution)) using reinforced homogenizing tubes containing metal beads using a Precellys 24 with cryolys cooling at 6000 rpm, 2 × 20 s (Stretton Scientific). Lysates were incubated on ice for 15 minutes, spun at 14000 rpm at 4 °C for 10 minutes and supernatants collected and aliquoted.
Samples were stored at -80 °C until use. Protein concentration was determined by diluting 1:10 with lysis buffer and measuring on Direct Detect® spectrometer according to manufacturer’s instructions.
Protein lysates were diluted to 0.0875 mg/ml with 0.1x sample buffer and run on Wes 12-230 kDa kit according to manufacturer’s instructions (ProteinSimple) with multiplexing BCL6 (CST14895 at 1:150 dilution) and GAPDH (CST 2118 at 1:50 dilution). Data was analysed using Compass for SW software. […]
5.3.6 Quantitative RT-PCR […]
(ThermoFisher Scientific). ARID3A expression relative to vehicle-treated tumours was determined using […]

EDNRA = target: T2, EDNRA (Homo sapiens, UniProt P25101); assay: SAFETYscan Calcium Flux EDNRA Agonist; type: cell-based
T2 sequence (P25101 21-427): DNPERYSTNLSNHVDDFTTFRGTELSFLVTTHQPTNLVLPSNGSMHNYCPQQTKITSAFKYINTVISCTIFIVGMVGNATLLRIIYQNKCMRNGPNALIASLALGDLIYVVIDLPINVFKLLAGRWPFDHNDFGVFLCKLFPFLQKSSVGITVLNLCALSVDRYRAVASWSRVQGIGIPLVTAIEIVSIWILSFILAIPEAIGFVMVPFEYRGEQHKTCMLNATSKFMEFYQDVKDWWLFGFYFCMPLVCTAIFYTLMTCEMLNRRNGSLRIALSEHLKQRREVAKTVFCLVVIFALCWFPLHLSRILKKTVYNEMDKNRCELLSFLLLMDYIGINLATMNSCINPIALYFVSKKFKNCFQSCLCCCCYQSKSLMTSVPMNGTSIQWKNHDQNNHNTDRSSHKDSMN
Excerpt: (§1) Supplement jm3c00155_si_002.xlsx, sheet "SAFETYScan" | column: RC50 (uM); Max Response

HRH1 = HRH1 (Homo sapiens, UniProt P35367); assay: SAFETYscan Calcium Flux HRH1 Agonist; type: cell-based
HRH1, sequence (P35367 whole entry): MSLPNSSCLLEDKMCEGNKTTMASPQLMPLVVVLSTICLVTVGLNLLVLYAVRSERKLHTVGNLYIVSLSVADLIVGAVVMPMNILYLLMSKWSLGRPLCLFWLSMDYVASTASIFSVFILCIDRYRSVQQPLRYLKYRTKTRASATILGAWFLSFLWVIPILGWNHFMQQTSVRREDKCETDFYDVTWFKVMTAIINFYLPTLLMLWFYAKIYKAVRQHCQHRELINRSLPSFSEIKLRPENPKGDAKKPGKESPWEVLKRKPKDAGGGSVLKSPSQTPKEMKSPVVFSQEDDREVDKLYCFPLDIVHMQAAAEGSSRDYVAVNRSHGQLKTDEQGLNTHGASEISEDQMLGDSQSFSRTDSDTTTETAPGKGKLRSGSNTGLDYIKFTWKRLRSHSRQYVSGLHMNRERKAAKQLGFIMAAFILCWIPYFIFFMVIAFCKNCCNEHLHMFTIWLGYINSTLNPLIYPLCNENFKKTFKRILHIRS
Excerpt: as §1

HTR2A = HTR2A (Homo sapiens, UniProt P28223); assay: SAFETYscan Calcium Flux HTR2A Antagonist; type: cell-based
HTR2A, sequence (P28223 whole entry): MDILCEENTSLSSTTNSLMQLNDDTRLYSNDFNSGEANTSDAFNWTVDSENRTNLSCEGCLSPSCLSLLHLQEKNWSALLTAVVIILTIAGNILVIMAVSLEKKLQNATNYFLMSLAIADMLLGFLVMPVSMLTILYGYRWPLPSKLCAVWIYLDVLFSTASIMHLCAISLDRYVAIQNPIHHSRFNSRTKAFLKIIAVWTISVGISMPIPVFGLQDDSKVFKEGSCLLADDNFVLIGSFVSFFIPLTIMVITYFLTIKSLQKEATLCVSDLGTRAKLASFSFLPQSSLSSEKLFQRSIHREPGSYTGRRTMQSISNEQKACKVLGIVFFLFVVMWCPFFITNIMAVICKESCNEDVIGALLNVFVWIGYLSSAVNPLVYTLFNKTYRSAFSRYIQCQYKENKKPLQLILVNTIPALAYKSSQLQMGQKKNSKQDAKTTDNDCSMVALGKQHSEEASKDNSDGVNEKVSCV
Excerpt: as §1

CNR1 = CNR1 (Homo sapiens, UniProt P21554); assay: SAFETYscan cAMP CNR1 Agonist; type: cell-based
CNR1, sequence (P21554 whole entry): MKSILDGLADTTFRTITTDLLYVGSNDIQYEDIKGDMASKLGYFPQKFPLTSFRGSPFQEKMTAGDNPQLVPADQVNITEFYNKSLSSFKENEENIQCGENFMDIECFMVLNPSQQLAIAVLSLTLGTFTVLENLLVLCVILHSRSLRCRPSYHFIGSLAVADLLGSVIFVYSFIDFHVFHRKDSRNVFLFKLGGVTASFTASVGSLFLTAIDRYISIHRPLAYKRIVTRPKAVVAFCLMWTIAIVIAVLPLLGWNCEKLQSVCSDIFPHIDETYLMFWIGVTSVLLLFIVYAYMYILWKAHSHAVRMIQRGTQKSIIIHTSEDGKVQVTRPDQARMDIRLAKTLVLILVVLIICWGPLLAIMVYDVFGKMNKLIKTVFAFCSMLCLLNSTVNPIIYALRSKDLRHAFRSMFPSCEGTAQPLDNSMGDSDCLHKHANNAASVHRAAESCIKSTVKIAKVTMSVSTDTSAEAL
Excerpt: as §1

ADRA2A = target: T3, ADRA2A (Homo sapiens, UniProt P08913); assay: SAFETYscan cAMP ADRA2A Antagonist; type: cell-based
T3 sequence (P08913 1-465): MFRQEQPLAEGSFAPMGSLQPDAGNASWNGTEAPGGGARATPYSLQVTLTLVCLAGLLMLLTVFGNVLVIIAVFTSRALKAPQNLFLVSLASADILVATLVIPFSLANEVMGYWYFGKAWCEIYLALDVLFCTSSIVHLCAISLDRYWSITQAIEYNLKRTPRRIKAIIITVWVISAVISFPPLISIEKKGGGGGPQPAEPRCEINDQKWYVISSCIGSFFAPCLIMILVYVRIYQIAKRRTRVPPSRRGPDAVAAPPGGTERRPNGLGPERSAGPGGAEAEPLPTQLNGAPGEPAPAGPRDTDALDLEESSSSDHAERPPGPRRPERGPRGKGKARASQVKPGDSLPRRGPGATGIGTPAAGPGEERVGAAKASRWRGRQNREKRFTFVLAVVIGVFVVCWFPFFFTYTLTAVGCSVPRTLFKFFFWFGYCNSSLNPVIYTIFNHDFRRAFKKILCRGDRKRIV
Excerpt: as §1

CNR2 = CNR2 (Homo sapiens, UniProt P34972); assay: SAFETYscan cAMP CNR2 Antagonist; type: cell-based
CNR2, sequence (P34972 whole entry): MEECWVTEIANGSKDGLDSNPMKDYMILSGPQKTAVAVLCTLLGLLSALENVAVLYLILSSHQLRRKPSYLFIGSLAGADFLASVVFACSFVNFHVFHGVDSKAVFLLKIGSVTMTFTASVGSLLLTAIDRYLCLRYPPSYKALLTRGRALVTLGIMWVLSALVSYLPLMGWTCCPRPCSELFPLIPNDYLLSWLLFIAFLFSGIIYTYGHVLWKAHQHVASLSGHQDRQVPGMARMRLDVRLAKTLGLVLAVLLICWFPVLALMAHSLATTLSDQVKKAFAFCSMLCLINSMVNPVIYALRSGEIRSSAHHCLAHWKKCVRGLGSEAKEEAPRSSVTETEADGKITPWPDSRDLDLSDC
Excerpt: as §1

DRD1 = DRD1 (Homo sapiens, UniProt P21728); assay: SAFETYscan cAMP DRD1 Antagonist; type: cell-based
DRD1, sequence (P21728 whole entry): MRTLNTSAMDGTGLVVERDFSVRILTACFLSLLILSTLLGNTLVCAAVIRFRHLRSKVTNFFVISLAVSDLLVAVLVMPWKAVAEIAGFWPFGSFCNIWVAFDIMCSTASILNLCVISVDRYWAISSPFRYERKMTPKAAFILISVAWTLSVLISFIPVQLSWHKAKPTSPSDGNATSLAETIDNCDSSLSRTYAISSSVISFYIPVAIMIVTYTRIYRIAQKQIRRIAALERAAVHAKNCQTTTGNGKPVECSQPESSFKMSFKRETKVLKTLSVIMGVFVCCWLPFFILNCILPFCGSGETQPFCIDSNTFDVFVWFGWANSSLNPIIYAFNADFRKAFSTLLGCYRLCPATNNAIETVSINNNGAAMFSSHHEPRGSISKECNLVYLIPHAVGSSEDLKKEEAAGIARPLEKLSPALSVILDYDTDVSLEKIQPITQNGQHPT
Excerpt: (§2) Supplement jm3c00155_si_002.xlsx, sheet "SAFETYScan" | column: RC50 (uM); Hill; Max Response

HRH2 = HRH2 (Homo sapiens, UniProt P25021); assay: SAFETYscan cAMP HRH2 Antagonist; type: cell-based
HRH2, sequence (P25021 whole entry): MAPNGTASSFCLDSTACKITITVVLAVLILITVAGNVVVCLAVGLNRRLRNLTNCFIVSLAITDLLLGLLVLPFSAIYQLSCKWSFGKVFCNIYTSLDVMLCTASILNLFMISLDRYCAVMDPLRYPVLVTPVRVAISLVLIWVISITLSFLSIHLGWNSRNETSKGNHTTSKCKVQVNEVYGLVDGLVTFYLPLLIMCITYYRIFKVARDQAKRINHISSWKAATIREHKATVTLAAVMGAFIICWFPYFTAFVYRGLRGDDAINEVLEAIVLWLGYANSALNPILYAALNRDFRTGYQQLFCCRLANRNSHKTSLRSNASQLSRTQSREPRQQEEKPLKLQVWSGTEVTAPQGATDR
Excerpt: as §2

SMILES: Cn1c(=O)c2c(c3cc(Nc4ccnc(F)c4Cl)ccc31)N[C@@H](C1CC1)C(F)(F)CO2 [compound 17, (S)-10-((3-chloro-2-fluoropyridin-4-yl)amino)-2-cyclopropyl-3,3-difluoro-7-methyl-1,2,3,4-tetrahydro-[1,4]oxazepino[2,3-c]quinolin-6(7H)-one]
- IC90 ([1]; HEK-293T, Table S2, read-out: BCL6 NanoBRET IC90 individual replicates): 140 nM
- calculated free (unbound) cellular IC90 ([1]; HEK-293T, calculated free cellular IC90 from NanoBRET assay): 48 nM
- IC90 ([1]; HEK-293T, geometric mean of at least three replicates, read-out: NanoBRET IC90): 140 nM
- BCL6 NanoBRET pIC50 mean ([1]; Table S2): 7.6643
- IC50 ([1]; geometric mean of at least three replicates, read-out: NanoBRET IC50): 22 nM
- IC50 ([1]; single replicates, Table S2, listed as CCT374705, 17, read-out: BCL6 NanoBRET IC50 individual replicates): 21.8 nM and 22.2 nM
- IC50 ([1]; single replicates, Table S2, read-out: BCL6 NanoBRET IC50 individual replicates): 25.1 nM and 17.3 nM and 24.3 nM and 18.4 nM and 20.9 nM and 24.2 nM and 77.1 nM and 15.6 nM and 11.1 nM and 15.4 nM and 40.7 nM and 25.3 nM and 23.2 nM and 13 nM and 32.6 nM and 29.5 nM and 10.1 nM and 12.1 nM and 44.2 nM and 19.7 nM and 14.6 nM and 25.2 nM
- IC50 ([1]; supplement, read-out: BCL6 NanoBRET IC50 Geometric Mean): 21.7 nM
- ARID3A mRNA expression in tumor xenografts (ARID3A mRNA): significant increase in ARID3A mRNA expression
- Emax (EDNRA; read-out: Max Response): 0%
- EC50 (EDNRA; read-out: RC50 (EC50)): > 10000 nM
- Emax (HRH1; read-out: Max Response): 0%
- EC50 (HRH1; read-out: RC50 (EC50)): > 10000 nM
- IC50 (HTR2A): > 10000 nM
- Emax (HTR2A; HTR2A, Calcium Flux, Antagonist, read-out: Max Response): 5.28%
- EC50 (CNR1): > 10000 nM
- Emax (CNR1; CNR1, cAMP, Agonist, read-out: Max Response): 27.3%
- IC50 (ADRA2A): > 10000 nM
- Emax (ADRA2A; ADRA2A, cAMP, Antagonist, read-out: Max Response): 0%
- IC50 (CNR2): > 10000 nM
- Emax (CNR2; CNR2, cAMP, Antagonist, read-out: Max Response): 0%
- IC50 (DRD1): 2580 nM
- Hill (DRD1; DRD1, cAMP, Antagonist): 1.27
- Emax (DRD1; DRD1, cAMP, Antagonist, read-out: Max Response): 82.7%
- Hill (HRH2): 1.03
- Emax (HRH2; read-out: Max Response): 65.2%
- IC50 (HRH2; read-out: RC50 (IC50)): 4760 nM
